US20230085307A1, “PYRIDAZINONE COMPOUND AND HERBICIDE” (NISSAN CHEMICAL CORPORATION, priority 2019, published 2023)

How the values were obtained:
[1] = tested on: barnyard grass; assay: Test Example 3: herbicidal effect by foliage application, Wagner pot (Table 18, symbol H); type: in vivo, barnyard grass (Echinochloa crus-galli)
Method in brief: (§1)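 Plants were sown in alluvial soil held under 0.1–0.5 cm standing water and grown 14 days in a greenhouse at 25–30 °C. An emulsifiable formulation, water-diluted to the set dose, was then sprayed onto the foliage, and effects were scored three weeks later using previously defined criteria.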

[2] = tested on: Chinese sprangletop; assay: Test Example 3: herbicidal effect by foliage application, Wagner pot (Table 18, symbol D); type: in vivo, chinese sprangletop (Leptochloa chinensis)
Method in brief: as §1

[3] = tested on: rice flat sedge; assay: Test Example 3: herbicidal effect by foliage application, Wagner pot (Table 18, symbol E); type: in vivo, rice flat sedge (Cyperus iria)
Method in brief: as §1

[4] = tested on: southern crabgrass; assay: Test Example 4: herbicidal effect by soil treatment (Table 19, symbol F); type: in vivo, southern crabgrass (Digitaria ciliaris)
Method in brief: (§2)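 Emulsion of test compound, water-diluted to predetermined amount, sprayed on soil after sowing (seed depth ~1.5 cm, sterilized diluvial soil). Greenhouse, 25–30° C. Effect graded at three weeks post-spray.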

[5] = tested on: green foxtail; assay: Test Example 4: herbicidal effect by soil treatment (Table 19, symbol G); type: in vivo, green foxtail (Setaria viridis)
Method in brief: as §2

[6] = tested on: barnyard grass; assay: Test Example 4: herbicidal effect by soil treatment (Table 19, symbol H); type: in vivo, barnyard grass (Echinochloa crus-galli)
Method in brief: as §2

[7] = tested on: wild oat; assay: Test Example 4: herbicidal effect by soil treatment (Table 19, symbol I); type: in vivo, wild oat (Avena fatua)
Method in brief: as §2

[8] = tested on: blackgrass; assay: Test Example 4: herbicidal effect by soil treatment (Table 19, symbol J); type: in vivo, blackgrass (Alopecurus myosuroides)
Method in brief: as §2

[9] = tested on: Italian ryegrass; assay: Test Example 4: herbicidal effect by soil treatment (Table 19, symbol K); type: in vivo, Italian ryegrass (Lolium multiflorum)
Method in brief: as §2

[10] = tested on: windgrass; assay: Test Example 4: herbicidal effect by soil treatment (Table 19, symbol L); type: in vivo, windgrass (Apera spica-venti)
Method in brief: as §2

[11] = tested on: velvetleaf; assay: Test Example 4: herbicidal effect by soil treatment (Table 19, symbol M); type: in vivo, velvetleaf (Abutilon theophrasti)
Method in brief: as §2

[12] = tested on: redroot pigweed; assay: Test Example 4: herbicidal effect by soil treatment (Table 19, symbol N); type: in vivo, redroot pigweed (Amaranthus retroflexus)
Method in brief: as §2

[13] = tested on: lambsquarters; assay: Test Example 4: herbicidal effect by soil treatment (Table 19, symbol O); type: in vivo, lambsquarters (Chenopodium album)
Method in brief: as §2

[14] = tested on: chickweed; assay: Test Example 4: herbicidal effect by soil treatment (Table 19, symbol P); type: in vivo, common chickweed (Stellaria media)
Method in brief: as §2

[15] = tested on: persian speedwell; assay: Test Example 4: herbicidal effect by soil treatment (Table 19, symbol R); type: in vivo, Persian speedwell (Veronica persica)
Method in brief: as §2

[16] = tested on: southern crabgrass; assay: Test Example 5: herbicidal effect by foliage application, plastic box (Table 20, symbol F); type: in vivo, southern crabgrass (Digitaria ciliaris); conditions: foliage application, three weeks after application
Method in brief: (§3)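 Post-emergence foliar test in sterilized diluvial soil. Compound applied as water-diluted emulsion at a predetermined rate to 14-day-old plants; evaluation at three weeks.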

[17] = tested on: green foxtail; assay: Test Example 5: herbicidal effect by foliage application, plastic box (Table 20, symbol G); type: in vivo, green foxtail (Setaria viridis); conditions: foliage application, three weeks after application
Method in brief: as §3

[18] = tested on: barnyard grass; assay: Test Example 5: herbicidal effect by foliage application, plastic box (Table 20, symbol H); type: in vivo, barnyard grass (Echinochloa crus-galli); conditions: foliage application, three weeks after application
Method in brief: as §3

[19] = tested on: wild oat; assay: Test Example 5: herbicidal effect by foliage application, plastic box (Table 20, symbol I); type: in vivo, wild oat (Avena fatua); conditions: foliage application, three weeks after application
Method in brief: as §3

[20] = tested on: blackgrass; assay: Test Example 5: herbicidal effect by foliage application, plastic box (Table 20, symbol J); type: in vivo, blackgrass (Alopecurus myosuroides); conditions: foliage application, three weeks after application
Method in brief: as §3

[21] = tested on: Italian ryegrass; assay: Test Example 5: herbicidal effect by foliage application, plastic box (Table 20, symbol K); type: in vivo, Italian ryegrass (Lolium multiflorum); conditions: foliage application, three weeks after application
Method in brief: as §3

[22] = tested on: windgrass; assay: Test Example 5: herbicidal effect by foliage application, plastic box (Table 20, symbol L); type: in vivo, windgrass (Apera spica-venti); conditions: foliage application, three weeks after application
Method in brief: as §3

[23] = tested on: velvetleaf; assay: Test Example 5: herbicidal effect by foliage application, plastic box (Table 20, symbol M); type: in vivo, velvetleaf (Abutilon theophrasti); conditions: foliage application, three weeks after application
Method in brief: as §3

[24] = tested on: redroot pigweed; assay: Test Example 5: herbicidal effect by foliage application, plastic box (Table 20, symbol N); type: in vivo, redroot pigweed (Amaranthus retroflexus); conditions: foliage application, three weeks after application
Method in brief: as §3

[25] = tested on: lambsquarters; assay: Test Example 5: herbicidal effect by foliage application, plastic box (Table 20, symbol O); type: in vivo, lambsquarters (Chenopodium album); conditions: foliage application, three weeks after application
Method in brief: as §3

[26] = tested on: chickweed; assay: Test Example 5: herbicidal effect by foliage application, plastic box (Table 20, symbol P); type: in vivo, common chickweed (Stellaria media); conditions: foliage application, three weeks after application
Method in brief: as §3

[27] = tested on: persian speedwell; assay: Test Example 5: herbicidal effect by foliage application, plastic box (Table 20, symbol R); type: in vivo, Persian speedwell (Veronica persica); conditions: foliage application, three weeks after application
Method in brief: as §3

SMILES: Cc1nn(C)c(=O)c(-c2c(-c3cccc(C#N)c3)sc3ccccc23)c1O [1-123]
- herbicidal effect on H (barnyard grass), rating 0-5 ([1]; 296 g/ha): 3 (Herbicidal rate of 40% or more and less than 70%)
- herbicidal effect on D (Chinese sprangletop), rating 0-5 ([2]; 296 g/ha): 3 (Herbicidal rate of 40% or more and less than 70%)
- herbicidal effect on E (rice flat sedge), rating 0-5 ([3]; 296 g/ha): 3 (Herbicidal rate of 40% or more and less than 70%)
- F: southern crabgrass, herbicidal effect rating ([4]; AAH 296 g/ha): 0 (Herbicidal rate of 5% or less (almost no effect))
- G: green foxtail, herbicidal effect rating ([5]; AAH 296 g/ha): 0 (Herbicidal rate of 5% or less (almost no effect))
- H: barnyard grass, herbicidal effect rating ([6]; AAH 296 g/ha): 0 (Herbicidal rate of 5% or less (almost no effect))
- I: wild oat, herbicidal effect rating ([7]; AAH 296 g/ha): 0 (Herbicidal rate of 5% or less (almost no effect))
- J: blackgrass, herbicidal effect rating ([8]; AAH 296 g/ha): 0 (Herbicidal rate of 5% or less (almost no effect))
- K: Italian ryegrass, herbicidal effect rating ([9]; AAH 296 g/ha): 0 (Herbicidal rate of 5% or less (almost no effect))
- L: windgrass, herbicidal effect rating ([10]; AAH 296 g/ha): 0 (Herbicidal rate of 5% or less (almost no effect))
- M: velvetleaf, herbicidal effect rating ([11]; AAH 296 g/ha): 0 (Herbicidal rate of 5% or less (almost no effect))
- N: redroot pigweed, herbicidal effect rating ([12]; AAH 296 g/ha): 4 (Herbicidal rate of 70% or more and less than 90%)
- O: lambsquarters, herbicidal effect rating ([13]; AAH 296 g/ha): 4 (Herbicidal rate of 70% or more and less than 90%)
- P: chickweed, herbicidal effect rating ([14]; AAH 296 g/ha): 1 (Herbicidal rate of 5% or more and less than 20%)
- R: persian speedwell, herbicidal effect rating ([15]; AAH 296 g/ha): 3 (Herbicidal rate of 40% or more and less than 70%)
- F: southern crabgrass, herbicidal effect ([16]; AAH 296 g/ha): 0 (Herbicidal rate of 5% or less (almost no effect))
- G: green foxtail, herbicidal effect ([17]; AAH 296 g/ha): 0 (Herbicidal rate of 5% or less (almost no effect))
- H: barnyard grass, herbicidal effect ([18]; AAH 296 g/ha): 0 (Herbicidal rate of 5% or less (almost no effect))
- I: wild oat, herbicidal effect ([19]; AAH 296 g/ha): 0 (Herbicidal rate of 5% or less (almost no effect))
- J: blackgrass, herbicidal effect ([20]; AAH 296 g/ha): 0 (Herbicidal rate of 5% or less (almost no effect))
- K: Italian ryegrass, herbicidal effect ([21]; AAH 296 g/ha): 0 (Herbicidal rate of 5% or less (almost no effect))
- L: windgrass, herbicidal effect ([22]; AAH 296 g/ha): 0 (Herbicidal rate of 5% or less (almost no effect))
- M: velvetleaf, herbicidal effect ([23]; AAH 296 g/ha): 5 (Herbicidal rate of 90% or more (almost completely withered))
- N: redroot pigweed, herbicidal effect ([24]; AAH 296 g/ha): 5 (Herbicidal rate of 90% or more (almost completely withered))
- O: lambsquarters, herbicidal effect ([25]; AAH 296 g/ha): 3 (Herbicidal rate of 40% or more and less than 70%)
- P: chickweed, herbicidal effect ([26]; AAH 296 g/ha): 5 (Herbicidal rate of 90% or more (almost completely withered))
- R: persian speedwell, herbicidal effect ([27]; AAH 296 g/ha): 1 (Herbicidal rate of 5% or more and less than 20%)

SMILES: CCCC(=O)Oc1c(C)nn(C)c(=O)c1-c1c(-c2cccc(C#N)c2)sc2ccccc12 [1-124]
- herbicidal effect on H (barnyard grass), rating 0-5 ([1]; 320 g/ha): 0 (Herbicidal rate of 5% or less (almost no effect))
- herbicidal effect on D (Chinese sprangletop), rating 0-5 ([2]; 320 g/ha): 2 (Herbicidal rate of 20% or more and less than 40%)
- herbicidal effect on E (rice flat sedge), rating 0-5 ([3]; 320 g/ha): 3 (Herbicidal rate of 40% or more and less than 70%)
- F: southern crabgrass, herbicidal effect rating ([4]; AAH 320 g/ha): 0 (Herbicidal rate of 5% or less (almost no effect))
- G: green foxtail, herbicidal effect rating ([5]; AAH 320 g/ha): 0 (Herbicidal rate of 5% or less (almost no effect))
- H: barnyard grass, herbicidal effect rating ([6]; AAH 320 g/ha): 0 (Herbicidal rate of 5% or less (almost no effect))
- I: wild oat, herbicidal effect rating ([7]; AAH 320 g/ha): 0 (Herbicidal rate of 5% or less (almost no effect))
- J: blackgrass, herbicidal effect rating ([8]; AAH 320 g/ha): 0 (Herbicidal rate of 5% or less (almost no effect))
- K: Italian ryegrass, herbicidal effect rating ([9]; AAH 320 g/ha): 0 (Herbicidal rate of 5% or less (almost no effect))
- L: windgrass, herbicidal effect rating ([10]; AAH 320 g/ha): 0 (Herbicidal rate of 5% or less (almost no effect))
- M: velvetleaf, herbicidal effect rating ([11]; AAH 320 g/ha): 0 (Herbicidal rate of 5% or less (almost no effect))
- N: redroot pigweed, herbicidal effect rating ([12]; AAH 320 g/ha): 0 (Herbicidal rate of 5% or less (almost no effect))
- O: lambsquarters, herbicidal effect rating ([13]; AAH 320 g/ha): 0 (Herbicidal rate of 5% or less (almost no effect))
- P: chickweed, herbicidal effect rating ([14]; AAH 320 g/ha): 3 (Herbicidal rate of 40% or more and less than 70%)
- R: persian speedwell, herbicidal effect rating ([15]; AAH 320 g/ha): 0 (Herbicidal rate of 5% or less (almost no effect))
- F: southern crabgrass, herbicidal effect ([16]; AAH 320 g/ha): 0 (Herbicidal rate of 5% or less (almost no effect))
- G: green foxtail, herbicidal effect ([17]; AAH 320 g/ha): 0 (Herbicidal rate of 5% or less (almost no effect))
- H: barnyard grass, herbicidal effect ([18]; AAH 320 g/ha): 0 (Herbicidal rate of 5% or less (almost no effect))
- I: wild oat, herbicidal effect ([19]; AAH 320 g/ha): 0 (Herbicidal rate of 5% or less (almost no effect))
- J: blackgrass, herbicidal effect ([20]; AAH 320 g/ha): 0 (Herbicidal rate of 5% or less (almost no effect))
- K: Italian ryegrass, herbicidal effect ([21]; AAH 320 g/ha): 0 (Herbicidal rate of 5% or less (almost no effect))
- L: windgrass, herbicidal effect ([22]; AAH 320 g/ha): 0 (Herbicidal rate of 5% or less (almost no effect))
- M: velvetleaf, herbicidal effect ([23]; AAH 320 g/ha): 3 (Herbicidal rate of 40% or more and less than 70%)
- N: redroot pigweed, herbicidal effect ([24]; AAH 320 g/ha): 4 (Herbicidal rate of 70% or more and less than 90%)
- O: lambsquarters, herbicidal effect ([25]; AAH 320 g/ha): 3 (Herbicidal rate of 40% or more and less than 70%)
- P: chickweed, herbicidal effect ([26]; AAH 320 g/ha): 0 (Herbicidal rate of 5% or less (almost no effect))
- R: persian speedwell, herbicidal effect ([27]; AAH 320 g/ha): 1 (Herbicidal rate of 5% or more and less than 20%)
